Measurements from ChEMBL document CHEMBL1201862, “PubChem BioAssay data set” (2004).
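Compound exposure: 48 hours, 5 concentrations, 96-well plates. Abbreviation: GI50, concentration required for 50% inhibition of growth.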 Active and inactive are the calls of the source. Cut-off read from the data, not from the text of the source: active = GI50 up to about 1.1 µM and inactive = higher.

Legend:
Assay in all cases: NCI-60 cell line screen, 48 h
SN12C = test system: SN12C
HOP-18 = test system: HOP-18
LXFL 529 = test system: LXFL 529
DMS-114 = test system: DMS-114
SNB-19 = test system: SNB-19
XF498 = test system: XF498
DLD-1 = test system: DLD-1
SNB-75 = test system: SNB-75
TK-10 = test system: TK-10
K562 = test system: K562
DMS-273 = test system: DMS-273
HCC 2998 = test system: HCC 2998
RXF 393 = test system: RXF 393
KM12 = test system: KM12
NCI/ADR-RES = test system: NCI/ADR-RES
T47D = test system: T47D
BT-549 = test system: BT-549
PC-3 = test system: PC-3
Hs-578T = test system: Hs-578T
DU-145 = test system: DU-145

Measured: GI50

COc1cccc(C2C(C(=O)O)=C(CO)Oc3cc4c(cc32)OCO4)c1 (configuration not stated)
inactive: SN12C > 100 µM | HOP-18 > 100 µM | LXFL 529 > 100 µM | DMS-114 > 100 µM | SNB-19 > 100 µM | XF498 36.5 µM | DLD-1 > 100 µM | SNB-75 > 100 µM | TK-10 > 100 µM | K562 > 100 µM

CC(C)(C)OC(=O)NC1CCCC1=O (configuration not stated)
inactive: DMS-273 > 100 µM | HCC 2998 > 100 µM | SN12C > 100 µM | LXFL 529 > 100 µM | RXF 393 > 100 µM | KM12 > 100 µM | SNB-19 > 100 µM | XF498 > 100 µM | DLD-1 > 100 µM | SNB-75 40.9 µM | TK-10 > 100 µM | K562 > 100 µM

C=C1C(=O)O[C@@H]2[C@H]3O[C@]3(C)CCC=C(C)CC[C@@H]12
inactive: DMS-273 24.6 µM | HCC 2998 24.2 µM | SN12C 22.9 µM | HOP-18 14.9 µM | NCI/ADR-RES 15 µM | RXF 393 12.2 µM | DMS-114 45.9 µM | KM12 16.8 µM | SNB-19 63.7 µM | XF498 16.9 µM | DLD-1 12.5 µM | SNB-75 48.4 µM | K562 21.8 µM

CC(C)(C)C(=O)OCC1OC(N=[N+]=[N-])C(OC(=O)C(C)(C)C)C(OC(=O)C(C)(C)C)C1OC(=O)C(C)(C)C (configuration not stated)
inactive: DMS-273 > 100 µM | HCC 2998 > 100 µM | SN12C > 100 µM | LXFL 529 > 100 µM | RXF 393 > 100 µM | DMS-114 > 100 µM | KM12 > 100 µM | SNB-19 > 100 µM | XF498 > 100 µM | DLD-1 > 100 µM | SNB-75 > 100 µM | TK-10 > 100 µM | K562 > 100 µM

CC(C)(Br)C1(O)CCCN1C(=O)c1ccccc1 (configuration not stated)
inactive: DMS-273 > 100 µM | HCC 2998 > 100 µM | SN12C > 100 µM | HOP-18 > 100 µM | LXFL 529 > 100 µM | RXF 393 > 100 µM | KM12 > 100 µM | SNB-19 > 100 µM | DLD-1 > 100 µM | SNB-75 97.5 µM | TK-10 > 100 µM | K562 33 µM

CCCCNC1=C2C(=O)NN=C2CO1
inactive: DMS-273 > 100 µM | HCC 2998 > 100 µM | SN12C > 100 µM | LXFL 529 39.8 µM | RXF 393 > 100 µM | DMS-114 > 100 µM | KM12 > 100 µM | SNB-19 > 100 µM | XF498 > 100 µM | DLD-1 > 100 µM | SNB-75 > 100 µM | TK-10 > 100 µM | K562 > 100 µM

O=C(NNC(=O)c1nsc2ccccc12)c1ccc(Cl)cc1
inactive: DMS-273 8.11 µM | HCC 2998 16.9 µM | SN12C 17.6 µM | HOP-18 10.2 µM | LXFL 529 19.7 µM | RXF 393 14 µM | DMS-114 > 10 µM | KM12 27.2 µM | SNB-19 19.1 µM | SNB-75 2.93 µM | TK-10 26.3 µM | K562 19.1 µM

Brc1cccc(Nc2ncnc3sc4c(c23)CCC(Nc2cccc(Br)c2)C4)c1 (configuration not stated)
inactive: HCC 2998 > 100 µM | SN12C > 100 µM | NCI/ADR-RES > 100 µM | T47D 6.55 µM | RXF 393 > 100 µM | KM12 > 100 µM | SNB-19 > 100 µM | BT-549 > 100 µM | PC-3 > 100 µM | Hs-578T > 100 µM | DU-145 > 100 µM | SNB-75 65.9 µM | TK-10 > 100 µM | K562 > 100 µM

CCCn1cc2c3c(cccc31)C1C=C(C)CN(C)C1C2 (configuration not stated)
inactive: DMS-273 13.3 µM | HCC 2998 15.2 µM | SN12C 27.5 µM | HOP-18 13.7 µM | NCI/ADR-RES 20.8 µM | RXF 393 18.5 µM | DMS-114 15.1 µM | KM12 24.2 µM | SNB-19 27 µM | DLD-1 20.7 µM | SNB-75 12 µM | K562 2.56 µM

CN(C)/N=N/c1ccc([N+](=O)[O-])cc1C(N)=O
inactive: DMS-273 > 100 µM | HCC 2998 > 100 µM | SN12C > 100 µM | HOP-18 > 100 µM | NCI/ADR-RES > 100 µM | RXF 393 > 100 µM | DMS-114 > 100 µM | KM12 > 100 µM | SNB-19 > 66.5 µM | XF498 > 100 µM | DLD-1 > 100 µM | SNB-75 > 100 µM | K562 > 100 µM

C/C(=N/NS(=O)(=O)c1ccc([N+](=O)[O-])cc1)c1cccc[n+]1[O-]
inactive: DMS-273 > 100 µM | HCC 2998 > 100 µM | SN12C > 100 µM | HOP-18 > 100 µM | LXFL 529 > 100 µM | DMS-114 > 100 µM | KM12 > 100 µM | SNB-19 > 100 µM | XF498 > 100 µM | DLD-1 > 100 µM | SNB-75 > 100 µM | TK-10 > 100 µM | K562 > 100 µM
